# Several values for one entry are separate records, joined by “and”; a condition that tells them apart may be missing. Equal values may be shown once.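 Cells were grown in 96-well plates and exposed to each compound for 48 hours at five concentrations; endpoints were interpolated linearly between bracketing concentrations, or set to the highest concentration if not reached. GI50 is the concentration that inhibits growth by half. Definition used: TGI = concentration required for complete inhibition of growth.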
# Columns and labels:
# Test in all cases: growth of human tumour cells (NCI), 48 h
# CAKI-1 renal = test system: CAKI-1 renal
# EKVX NSCLC = test system: EKVX NSCLC
# HCT-15 colon = test system: HCT-15 colon
# HOP-62 NSCLC = test system: HOP-62 NSCLC
# HT29 colon = test system: HT29 colon
# MDA-MB-435 = test system: MDA-MB-435
# NCI-H460 lung = test system: NCI-H460 lung
# SF-539 CNS = test system: SF-539 CNS
# T-47D breast = test system: T-47D breast
# U251 CNS = test system: U251 CNS
Compound,TGI (CAKI-1 renal),TGI (EKVX NSCLC),TGI (HCT-15 colon),TGI (HOP-62 NSCLC),TGI (HT29 colon),TGI (MDA-MB-435),TGI (NCI-H460 lung),TGI (SF-539 CNS),TGI (T-47D breast),TGI (U251 CNS),GI50 (CAKI-1 renal),GI50 (EKVX NSCLC),GI50 (HCT-15 colon),GI50 (HOP-62 NSCLC),GI50 (HT29 colon),GI50 (MDA-MB-435),GI50 (NCI-H460 lung),GI50 (SF-539 CNS),GI50 (T-47D breast),GI50 (U251 CNS)
C[C@H]1[C@H](C)N1CC(O)Cn1ccnc1[N+](=O)[O-] (some centres not stated),> 100 µM,> 100 µM,> 100 µM,> 100 µM,> 100 µM,> 100 µM,> 100 µM,> 100 µM,> 100 µM,> 100 µM,–,–,–,–,–,–,–,–,–,–
CN1C(=O)c2ccc3ccccc3c2C1=O,> 100 µM,87.2 µM,> 100 µM,> 100 µM,> 100 µM,> 100 µM,> 100 µM,> 100 µM,> 100 µM,> 100 µM,–,–,–,–,–,–,–,–,–,–
COc1cc(/C=C/c2ccc(C)cc2)cc(OC)c1OC,> 55.2 µM,> 100 µM,20.1 µM,16.3 µM,9.45 µM,3.14 µM,> 32.8 µM,7.07 µM,20.6 µM,23.9 µM,–,–,–,–,–,–,–,–,–,–
COc1ccc(C(=O)Cn2c(C(=O)c3ccccc3)nc3ccccc32)cc1,> 100 µM,> 100 µM,> 100 µM,> 100 µM,> 100 µM,1.87 µM,> 100 µM,> 100 µM,> 100 µM,> 100 µM,> 100 µM,7.21 µM,1.24 µM,6.57 µM,1.25 µM,0.304 µM,3.39 µM,3.03 µM,3.87 µM,3.62 µM
NC(=N\N=C/c1ccc(O)cc1)/C(N)=N\N=C/c1ccc(O)cc1,> 100 µM,> 100 µM,> 100 µM,67.1 µM,> 100 µM,> 100 µM,> 100 µM,> 100 µM,> 100 µM,> 100 µM,2.06 µM,> 87.9 µM,–,20.7 µM,> 100 µM,4.88 µM,13.8 µM,3.99 µM,13.6 µM,19.5 µM
[2H]C([2H])([2H])NC(=O)c1nnc(NC(=O)C2CC2)cc1Nc1cccc(-c2ncn(C)n2)c1OC,71.6 µM,> 100 µM,> 100 µM,> 100 µM,> 100 µM,> 100 µM,> 100 µM,> 100 µM,> 100 µM,> 100 µM,4.52 µM,81.4 µM,15.5 µM,15.5 µM,44.6 µM,56.7 µM,> 100 µM,61.1 µM,32.4 µM,59.5 µM
O=[N+]([O-])c1cc[n+]([O-])c2ccccc12,0.937 µM,3.98 µM,1.42 µM,1.13 µM,1.09 µM,1.31 µM,0.162 µM,0.541 µM,4.25 µM,1.3 µM,0.307 µM,1.22 µM,0.279 µM,0.221 µM,0.246 µM,0.436 µM,0.033 µM,0.181 µM,0.321 µM,0.298 µM
O=C1NC(N/N=C\C(O)C(O)C(O)C(O)CO)=N/C1=C/c1ccccc1 (configuration not stated),> 100 µM and 38.1 µM,> 100 µM and 51 µM,> 100 µM and 33.8 µM,> 100 µM and 36.2 µM,> 100 µM and 44.5 µM,> 100 µM and 34.9 µM,> 100 µM and 25.6 µM,> 100 µM and 35.3 µM,> 100 µM and 26.7 µM,> 100 µM and 42.8 µM,> 100 µM and 19.4 µM,> 100 µM and 19.9 µM,51.9 µM and 12.7 µM and > 100 µM,> 100 µM and 19.4 µM,> 100 µM and 23.2 µM,85.7 µM and 15.7 µM and > 100 µM,75.8 µM and 11.8 µM and > 100 µM,> 100 µM and 17.4 µM,–,> 100 µM and 17.5 µM
OC1(c2ccccc2)C2CC=CC2C1(c1ccccc1)c1ccccc1 (configuration not stated),60.1 µM,76.4 µM,> 100 µM,> 100 µM,69.8 µM,62.1 µM,> 100 µM,> 100 µM,> 100 µM,> 100 µM,–,–,–,–,–,–,–,–,–,–
O=C(NCCN1CCOCC1)OCc1nc2nc(Cl)nc(N3CCOCC3)c2[nH]1,> 100 µM,> 100 µM,> 100 µM,> 100 µM,> 100 µM,2.94 µM,> 100 µM,3.29 µM,> 100 µM,> 100 µM,3.07 µM,> 100 µM,3.09 µM,4.93 µM,> 100 µM,0.651 µM,3.29 µM,0.402 µM,> 100 µM,4.09 µM
CO/N=C(\COc1ccc2c(=O)c3ccccc3oc2c1)c1ccccc1,4.89 µM,50.6 µM,> 100 µM,78.3 µM,> 100 µM,> 100 µM,> 100 µM,50.6 µM,> 100 µM,79.2 µM,1.19 µM,20.9 µM,51.9 µM,26.8 µM,86.5 µM,86.7 µM,38.9 µM,19 µM,> 100 µM,26.6 µM
C#C[C@]1(O)CC[C@H]2[C@@H]3CC=C4c5sc(Nc6cc(F)ccc6F)nc5CC[C@]4(C)[C@H]3CC[C@@]21C,2.79 µM,3.06 µM,4.84 µM,5.7 µM,8.5 µM,4.61 µM,4.14 µM,1.74 µM,7.69 µM,2.43 µM,1.38 µM,1.53 µM,1.53 µM,1.77 µM,2.24 µM,2.07 µM,1.95 µM,0.389 µM,2.49 µM,0.813 µM
C=CO/N=[N+](\[O-])N(CC)CC,> 100 µM,> 100 µM,> 100 µM,> 100 µM,> 100 µM,> 100 µM,> 100 µM,> 100 µM,> 100 µM,> 100 µM,–,–,–,–,–,–,–,–,–,–
COc1cc2c3c(n(CCCN)c(=O)c2cc1OC)-c1ccc([N+](=O)[O-])cc1C3=O,19.4 µM,40.7 µM,19 µM,2.26 µM,21.4 µM,37.5 µM,2.35 µM,14.9 µM,20.2 µM,19.8 µM,4.7 µM,20 µM,5.83 µM,0.613 µM,5.07 µM,15.9 µM,0.572 µM,3.76 µM,3.86 µM,4.94 µM
COC(=O)c1c2c(c(C)[n+]([O-])c1C)C(=O)C=C(NCc1ccccc1)C2=O,3.1 µM,2.55 µM,1.8 µM,3.19 µM,2.78 µM,0.391 µM,2.73 µM,1.94 µM,1.59 µM,3.02 µM,1.09 µM,1.14 µM,0.426 µM,1.49 µM,0.384 µM,0.202 µM,0.872 µM,0.711 µM,0.316 µM,1.33 µM
C=CC(=O)N1CCC(c2ccc(C(N)=O)c(-c3ccc(Oc4ccccc4)cc3)n2)CC1,> 100 µM,> 100 µM,> 100 µM,> 100 µM,> 100 µM,> 100 µM,> 100 µM,> 100 µM,95.7 µM,> 100 µM,15.8 µM,21.5 µM,25.2 µM,56.2 µM,46.7 µM,29.1 µM,46.2 µM,40.3 µM,16.1 µM,32.4 µM
Cc1ccc(/C=C(\C#N)c2cc3ccccc3n2C)cc1,> 100 µM,> 100 µM,> 100 µM,> 100 µM,> 100 µM,0.334 µM,> 100 µM,1.02 µM,> 100 µM,> 100 µM,0.406 µM,0.58 µM,0.303 µM,0.474 µM,0.356 µM,0.0502 µM,0.361 µM,0.294 µM,0.587 µM,0.406 µM
O=C(CCN1CCCC1)Nc1ccc2c(NCc3ccccc3)c3ccccc3nc2c1,6.18 µM,2.34 µM,6.97 µM,2.51 µM,1.7 µM,1.69 µM,1.07 µM,1.58 µM,2.89 µM,1.73 µM,1.53 µM,0.448 µM,1.86 µM,0.471 µM,0.324 µM,0.481 µM,0.313 µM,0.422 µM,0.562 µM,0.395 µM
COc1ccc2c(c1)nc(NNC(=O)c1cnccn1)c1cccn12,4.81 µM,3.7 µM,43 µM,3.33 µM,–,2.59 µM,4.02 µM,2.6 µM,3.99 µM,2.86 µM,0.659 µM,0.161 µM,0.0631 µM,0.0961 µM,0.354 µM,0.338 µM,0.125 µM,0.393 µM,0.348 µM,0.132 µM
O=C1CCc2c(sc3[nH]c(=S)n(-c4cc(C(F)(F)F)cc(C(F)(F)F)c4)c(=O)c23)C1,4.54 µM,5.14 µM,1.36 µM,11.8 µM,> 33.6 µM,5.45 µM,2.03 µM,1.7 µM,2.46 µM,1.97 µM,0.377 µM,0.378 µM,0.338 µM,0.553 µM,0.939 µM,1.22 µM,0.353 µM,0.362 µM,0.385 µM,0.364 µM

# From PubChem BioAssay (NCI)
